Results: ChEMBL document CHEMBL4190228, “Covalent inhibitors design and discovery” (Eur J Med Chem, 2017)

What was measured:
[1] = target: Tyrosine-protein kinase BTK (Homo sapiens) (UniProt Q06187); experiment: Receptor occupancy at BTK in human Ramos B cells at 1 uM preincubated for 1 hr followed by compound washout measured after 20 hrs by PP-BODIPY probe based fluorescence assay; type: cell-based
Chain of Tyrosine-protein kinase BTK (Homo sapiens) (Q06187 whole entry): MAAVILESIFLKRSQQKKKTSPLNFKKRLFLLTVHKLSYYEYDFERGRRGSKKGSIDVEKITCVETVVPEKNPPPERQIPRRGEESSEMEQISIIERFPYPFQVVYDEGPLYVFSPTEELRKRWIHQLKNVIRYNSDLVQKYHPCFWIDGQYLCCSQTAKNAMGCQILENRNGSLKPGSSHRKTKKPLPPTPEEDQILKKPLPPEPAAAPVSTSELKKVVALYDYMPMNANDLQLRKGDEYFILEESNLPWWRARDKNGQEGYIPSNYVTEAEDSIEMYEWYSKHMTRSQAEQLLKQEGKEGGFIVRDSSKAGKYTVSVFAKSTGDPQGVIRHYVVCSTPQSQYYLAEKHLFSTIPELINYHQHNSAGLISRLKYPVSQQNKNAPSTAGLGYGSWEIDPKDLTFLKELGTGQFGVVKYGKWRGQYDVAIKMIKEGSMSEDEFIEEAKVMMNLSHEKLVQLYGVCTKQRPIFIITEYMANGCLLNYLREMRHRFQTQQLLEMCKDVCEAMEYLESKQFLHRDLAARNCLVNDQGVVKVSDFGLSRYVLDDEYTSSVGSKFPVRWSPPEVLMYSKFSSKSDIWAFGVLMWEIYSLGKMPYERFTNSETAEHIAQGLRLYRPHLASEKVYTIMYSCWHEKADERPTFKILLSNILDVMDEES

SMILES | T1/2 (Francisella tularensis) [h] | Occ [1] [%]
CC(C)(C)NC(=O)[C@H]1CC[C@H]2[C@@H]3CC[C@H]4NC(=O)C=C[C@]4(C)[C@H]3CC[C@]12C | 4.7 to 7.1 | 
C/C=C(\C#N)C(=O)N1CCC[C@@H](n2nc(-c3ccc(Oc4ccccc4)cc3)c3c(N)ncnc32)C1 |  | 5
CC(C)(C)/C=C(\C#N)C(=O)N1CCC[C@@H](n2nc(-c3ccc(Oc4ccccc4)cc3)c3c(N)ncnc32)C1 |  | 50
